{
  "source": "patent US10544130B2",
  "about": "“Metallo-beta-lactamase inhibitors” (priority 2015, dated 2020)",
  "system": "Pseudomonas aeruginosa PAO1 MB9798 (efflux+, IMP-1)",
  "conditions": "ratio MITC95 PA 9798/MITC95 PA 9799; imipenem at 2 μg/mL",
  "text": "The strain background was Pseudomonas aeruginosa PAO1.\nThe strain set was then used as a pair to determine the effect of metallo-β-lactamase inhibitors of Formula I on the MIC of imipenem and/or ceftazidime. A fixed concentration of antibiotic was included in standard microbroth MIC tests, usually at the CLSI (Clinical and Laboratory Standards Institute) breakpoint concentration. A fixed amount of a class A/C beta-lactamase inhibitor was also included to inhibit the resident Pseudomonas AmpC enzyme. A serial titration of the metallo-β-lactamase inhibitor was included and the concentration of metallo-β-lactamase inhibitor which restores susceptibility of the strain to the included antibiotic was recorded. That concentration of metallo-β-lactamase inhibitor was then compared between the two strains to determine the fold difference between the efflux + (MB9798) and efflux − (MB9799) strains. This was taken as an indication of the extent to which the MBLi is subject to efflux.",
  "data": [
    {"smiles": "CC(C)(N)CNS(=O)(=O)c1ccc(-c2cccc3sc(N)nc23)c(-c2nnn[nH]2)c1S(N)(=O)=O", "note": "[Example 87, N^1-(2-amino-2-methylpropyl)-4-(2-aminobenzo[d]thiazol-4-yl)-3-(1H-tetrazol-5-yl)benzene-1,2-disulfonamide]", "values": [
      {"measurement": "Efflux ratio", "value": 0.50}
    ]},
    {"smiles": "Nc1nc2c(-c3ccc(S(=O)(=O)NC4C5CNCC54)c(S(N)(=O)=O)c3-c3nnn[nH]3)cccc2s1.O=C(O)C(F)(F)F", "note": "(stereo not shown) [Example 111, 6-(4-(2-aminobenzo[d]thiazol-4-yl)-2-sulfamoyl-3-(1H-tetrazol-5-yl)phenylsulfonamido)-3-azabicyclo[3.1.0]hexan-3-ium 2,2,2-trifluoroacetate]", "values": [
      {"measurement": "Efflux ratio", "value": 0.50}
    ]},
    {"smiles": "NC[C@H](O)CNS(=O)(=O)c1ccc(-c2cccc3[nH]cnc23)c(-c2nn[nH]n2)c1S(N)(=O)=O", "note": "[Example 307, (S)-4-(1H-benzo[d]imidazol-4-yl)-N1-(3-amino-2-hydroxypropyl)-3-(2H-tetrazol-5-yl)-benzene-1,2-disulfonamide]", "values": [
      {"measurement": "Efflux ratio", "value": 1.00}
    ]},
    {"smiles": "Nc1nc2c(-c3ccc(S(=O)(=O)N4CCNCC4)c(S(N)(=O)=O)c3-c3nn[nH]n3)cccc2o1", "note": "[Example 159, 3-(2-aminobenzo[d]oxazol-4-yl)-6-(piperazin-1-ylsulfonyl)-2-(2H-tetrazol-5-yl)benzenesulfonamide]", "values": [
      {"measurement": "Efflux ratio", "value": 2.00}
    ]},
    {"smiles": "CN1CC(N(C)S(=O)(=O)c2ccc(-c3cccc4sc(N)nc34)c(-c3nnn[nH]3)c2S(N)(=O)=O)C1.O=C(O)C(F)(F)F", "note": "[Example 107, 3-(4-(2-aminobenzo[d]thiazol-4-yl)-N-methyl-2-sulfamoyl-3-(1H-tetrazol-5-yl)phenylsulfonamido)-1-methylazetidin-1-ium 2,2,2-trifluoroacetate]", "values": [
      {"measurement": "Efflux ratio", "value": 4.00}
    ]},
    {"smiles": "NCCCNS(=O)(=O)c1ccc(-c2cccc3[nH]cnc23)c(-c2nn[nH]n2)c1S(N)(=O)=O", "note": "[Example 198, N^1-(3-aminopropyl)-4-(1H-benzo[d]imidazol-4-yl)-3-(2H-tetrazol-5-yl)benzene-1,2-disulfonamide]", "values": [
      {"measurement": "Efflux ratio", "value": 1.00}
    ]},
    {"smiles": "Nc1nc2c(-c3ccc(S(=O)(=O)N[C@@H]4CN[C@@H](CO)C4)c(S(N)(=O)=O)c3-c3nnn[nH]3)cccc2[nH]1", "note": "[Example 174, 4-(2-amino-1H-benzo[d]imidazol-4-yl)-N^1-((3S,5R)-5-(hydroxymethyl)pyrrolidin-3-yl)-3-(1H-tetrazol-5-yl)benzene-1,2-disulfonamide]", "values": [
      {"measurement": "Efflux ratio", "value": 1.00}
    ]},
    {"smiles": "Nc1nc2c(-c3ccc(S(=O)(=O)NC4CC5CNC4C5)c(S(N)(=O)=O)c3-c3nnn[nH]3)cccc2s1", "note": "(stereo not shown) [Example 88, 4-(2-aminobenzo[d]thiazol-4-yl)-N^1-(2-azabicyclo[2.2.1]heptan-6-yl)-3-(1H-tetrazol-5-yl)benzene-1,2-disulfonamide]", "values": [
      {"measurement": "Efflux ratio", "value": 0.50}
    ]},
    {"smiles": "NCC(CN)NS(=O)(=O)c1ccc(-c2cccnc2N)c(-c2nn[nH]n2)c1S(N)(=O)=O", "note": "[Example 210, 4-(2-aminopyridin-3-yl)-N1-(1,3-diaminopropan-2-yl)-3-(2H-tetrazol-5-yl)benzene-1,2-disulfonamide]", "values": [
      {"measurement": "Efflux ratio", "value": 2.00}
    ]},
    {"smiles": "NC[C@H](N)CNS(=O)(=O)c1ccc(-c2cccnc2N)c(-c2nn[nH]n2)c1S(N)(=O)=O", "note": "[Example 213, (S)-4-(2-aminopyridin-3-yl)-N1-(2,3-diaminopropyl)-3-(2H-tetrazol-5-yl)benzene-1,2-disulfonamide]", "values": [
      {"measurement": "Efflux ratio", "value": 2.00}
    ]},
    {"smiles": "NCCNS(=O)(=O)c1ccc(C2CCC[C@H](N)C2)c(-c2nn[nH]n2)c1S(N)(=O)=O", "note": "(stereo partly drawn) [Example 342, 4-((3S)-3-aminocyclohexyl)-N1-(2-aminoethyl)-3-(2H-tetrazol-5-yl)benzene-1,2-disulfonamide]", "values": [
      {"measurement": "Efflux ratio", "value": 4.00}
    ]},
    {"smiles": "CNCCNS(=O)(=O)c1ccc(-c2cccc3sc(N)nc23)c(-c2nnn[nH]2)c1S(N)(=O)=O", "note": "[Example 31, 4-(2-amino-1,3-benzothiazol-4-yl)-N^1-[2-(methylamino)ethyl]-3-(1H-tetrazol-5-yl)benzene-1,2-disulfonamide]", "values": [
      {"measurement": "Efflux ratio", "value": 1.50}
    ]},
    {"smiles": "CN(CCc1ccncc1)S(=O)(=O)c1ccc(-c2cccc3sc(N)nc23)c(-c2nnn[nH]2)c1S(N)(=O)=O.O=C(O)C(F)(F)F", "note": "[Example 100, 4-(2-(4-(2-aminobenzo[d]thiazol-4-yl)-N-methyl-2-sulfamoyl-3-(1H-tetrazol-5-yl)phenylsulfonamido)ethyl)pyridin-1-ium 2,2,2-trifluoroacetate]", "values": [
      {"measurement": "Efflux ratio", "value": 32.00}
    ]},
    {"smiles": "Nc1nc2c(-c3ccc(S(=O)(=O)NCCN4CCNC(=O)C4)c(S(N)(=O)=O)c3-c3nnn[nH]3)cccc2s1", "note": "[Example 15, 4-(2-amino-1,3-benzothiazol-4-yl)-N1-[2-(3-oxopiperazin-1-yl)ethyl]-3-(1H-tetrazol-5-yl)benzene-1,2-disulfonamide]", "values": [
      {"measurement": "Efflux ratio", "value": 1.00}
    ]},
    {"smiles": "NS(=O)(=O)c1c(S(=O)(=O)N2CCNCC2)ccc(-c2cccc3cn[nH]c23)c1-c1nnn[nH]1", "note": "[Example 160, 3-(1H-indazol-7-yl)-6-(piperazin-1-ylsulfonyl)-2-(1H-tetrazol-5-yl)benzenesulfonamide]", "values": [
      {"measurement": "Efflux ratio", "value": 4.00}
    ]},
    {"smiles": "CN1CCC(CNS(=O)(=O)c2ccc(-c3cccc4sc(N)nc34)c(-c3nnn[nH]3)c2S(N)(=O)=O)C1.O=C(O)C(F)(F)F", "note": "(stereo not shown) [Example 102, 3-((4-(2-aminobenzo[d]thiazol-4-yl)-2-sulfamoyl-3-(1H-tetrazol-5-yl)phenylsulfonamido)methyl)-1-methylpyrrolidin-1-ium 2,2,2-trifluoroacetate]", "values": [
      {"measurement": "Efflux ratio", "value": 0.50}
    ]},
    {"smiles": "NCCNS(=O)(=O)c1ccc(-c2ccc3ncn(CCN)c3c2)c(-c2nn[nH]n2)c1S(N)(=O)=O", "note": "[Example 348, N^1-(2-aminoethyl)-4-(1-(2-aminoethyl)-1H-benzo[d]imidazol-6-yl)-3-(2H-tetrazol-5-yl)benzene-1,2-disulfonamide]", "values": [
      {"measurement": "Efflux ratio", "value": 4.00}
    ]},
    {"smiles": "Nc1nc2c(-c3ccc(S(=O)(=O)N[C@H]4CN[C@@H](C(=O)O)C4)c(S(N)(=O)=O)c3-c3nnn[nH]3)cccc2s1", "note": "[Example 82, (4R)-4-({[4-(2-amino-1,3-benzothiazol-4-yl)-2-sulfamoyl-3-(1H-tetrazol-5-yl)phenyl]sulfonyl}amino)-D-proline]", "values": [
      {"measurement": "Efflux ratio", "value": 0.50}
    ]},
    {"smiles": "Nc1ccc(-c2ccc(S(=O)(=O)NC[C@@]3(N)CCNC3)c(S(N)(=O)=O)c2-c2nn[nH]n2)cn1", "note": "[Example 369, (R)-4-(6-aminopyridin-3-yl)-N1-((3-aminopyrrolidin-3-yl)methyl)-3-(2H-tetrazol-5-yl)benzene-1,2-disulfonamide]", "values": [
      {"measurement": "Efflux ratio", "value": 1.00}
    ]},
    {"smiles": "NCCOCCNS(=O)(=O)c1ccc(-c2cccc3sc(N)nc23)c(-c2nnn[nH]2)c1S(N)(=O)=O", "note": "[Example 203, 4-(2-aminobenzo[d]thiazol-4-yl)-N^1-(2-(2-aminoethoxy)ethyl)-3-(1H-tetrazol-5-yl)benzene-1,2-disulfonamide]", "values": [
      {"measurement": "Efflux ratio", "value": 0.50}
    ]},
    {"smiles": "Nc1nc2c(-c3ccc(S(=O)(=O)N[C@]4(CO)CCNC4)c(S(N)(=O)=O)c3-c3nnn[nH]3)cccc2[nH]1", "note": "[Example 177, (R)-4-(2-amino-1H-benzo[d]imidazol-4-yl)-N1-(3-(hydroxymethyl)pyrrolidin-3-yl)-3-(1H-tetrazol-5-yl)benzene-1,2-disulfonamide]", "values": [
      {"measurement": "Efflux ratio", "value": 0.50}
    ]},
    {"smiles": "NS(=O)(=O)c1ccc(-c2ccc(S(=O)(=O)N[C@@H]3CCNC3)c(S(N)(=O)=O)c2-c2nnn[nH]2)cc1", "note": "[Example 135, (R)-N4-(pyrrolidin-3-yl)-2-(1H-tetrazol-5-yl)-[1,1′-biphenyl]-3,4,4′-trisulfonamide]", "values": [
      {"measurement": "Efflux ratio", "value": 1.00}
    ]}
  ]
}
